Source: US20050197350A1, “Novel quinoline, tetrahydroquinazoline, and pyrimidine derivatives and methods of treatment related to the use thereof” (TAISHO PHARMACEUTICAL CO., LTD., priority 2003, published 2005)

These molecules were tested on MCH receptors (assay: MCH receptor activity class (method not given)). Conditions: class by percent of control at 10^-7 M or IC50.

Structure (SMILES) | class
CN(C)c1cc(N[C@H]2CC[C@@H](NC(=O)Nc3ccc(F)cc3)CC2)nc2ccccc12 [compound 2094] | 3 (Class 3 The value of percent of control at 10^−7 M was more than 60% or the value of IC50 was more than 200 nM.)
CSc1ccc(NC(=O)N[C@H]2CC[C@@H](Nc3cc(N(C)C)c4ccccc4n3)CC2)cc1 [compound 2095] | 3 (Class 3 The value of percent of control at 10^−7 M was more than 60% or the value of IC50 was more than 200 nM.)
CN(C)c1cc(N[C@H]2CC[C@@H](NC(=O)Nc3ccccc3C(F)(F)F)CC2)nc2ccccc12 [compound 2096] | 3 (Class 3 The value of percent of control at 10^−7 M was more than 60% or the value of IC50 was more than 200 nM.)
Cc1cc(C)c(NC(=O)N[C@H]2CC[C@@H](Nc3cc(N(C)C)c4ccccc4n3)CC2)c(C)c1 [compound 2097, N-(cis-4-{[4-(dimethylamino)quinolin-2-yl]amino}cyclohexyl)-N′-mesitylurea] | 1 (Class 1: The value of percent of control at 10^−7 M was less than 40% or the value of IC50 was less than 50 nM.)
Cc1ccccc1NC(=O)N[C@H]1CC[C@@H](Nc2cc(N(C)C)c3ccccc3n2)CC1 [compound 2098] | 3 (Class 3 The value of percent of control at 10^−7 M was more than 60% or the value of IC50 was more than 200 nM.)
CN(C)c1cc(N[C@H]2CC[C@@H](NC(=O)Nc3c(Cl)cc(Cl)cc3Cl)CC2)nc2ccccc12 [compound 2099, N-(cis-4-{[4-(dimethylamino)quinolin-2-yl]amino}cyclohexyl)-N′-(2,4,6-trichlorophenyl)urea] | 2 (Class 2: The value of percent of control at 10^−7 M was from 40% to 60% or the value of IC′50 was from 50 nM to 200 nM.)
CN(C)c1cc(N[C@H]2CC[C@@H](NC(=O)Nc3c(F)cc(Br)cc3Br)CC2)nc2ccccc12 [compound 2101] | 2 (Class 2: The value of percent of control at 10^−7 M was from 40% to 60% or the value of IC′50 was from 50 nM to 200 nM.)
CCc1cccc(CC)c1NC(=O)N[C@H]1CC[C@@H](Nc2cc(N(C)C)c3ccccc3n2)CC1 [compound 2102] | 1 (Class 1: The value of percent of control at 10^−7 M was less than 40% or the value of IC50 was less than 50 nM.)
CN(C)c1cc(N[C@H]2CC[C@@H](NC(=O)Nc3c(Cl)cccc3C(F)(F)F)CC2)nc2ccccc12 [compound 2103] | 3 (Class 3 The value of percent of control at 10^−7 M was more than 60% or the value of IC50 was more than 200 nM.)
Cc1cccc(Cl)c1NC(=O)N[C@H]1CC[C@@H](Nc2cc(N(C)C)c3ccccc3n2)CC1 [compound 2104] | 3 (Class 3 The value of percent of control at 10^−7 M was more than 60% or the value of IC50 was more than 200 nM.)
CN(C)c1cc(N[C@H]2CC[C@@H](NC(=O)NCc3ccccc3Cl)CC2)nc2ccccc12 [compound 2105] | 2 (Class 2: The value of percent of control at 10^−7 M was from 40% to 60% or the value of IC′50 was from 50 nM to 200 nM.)
CCc1cccc(C(C)C)c1NC(=O)N[C@H]1CC[C@@H](Nc2cc(N(C)C)c3ccccc3n2)CC1 [compound 2106, N-(cis-4-{[4-(dimethylamino)quinolin-2-yl]amino}cyclohexyl)-N′-(2-ethyl-6-isopropylphenyl)urea] | 2 (Class 2: The value of percent of control at 10^−7 M was from 40% to 60% or the value of IC′50 was from 50 nM to 200 nM.)
CCc1ccccc1NC(=O)N[C@H]1CC[C@@H](Nc2cc(N(C)C)c3ccccc3n2)CC1 [compound 2107] | 3 (Class 3 The value of percent of control at 10^−7 M was more than 60% or the value of IC50 was more than 200 nM.)
CN(C)c1cc(N[C@H]2CC[C@@H](NC(=O)Nc3ccccc3I)CC2)nc2ccccc12 [compound 2108] | 3 (Class 3 The value of percent of control at 10^−7 M was more than 60% or the value of IC50 was more than 200 nM.)
Cc1cccc(C(C)C)c1NC(=O)N[C@H]1CC[C@@H](Nc2cc(N(C)C)c3ccccc3n2)CC1 [compound 2109, N-(cis-4-{[4-(dimethylamino)quinolin-2-yl]amino}cyclohexyl)-N′-(2-isopropyl-6-methylphenyl)urea] | 2 (Class 2: The value of percent of control at 10^−7 M was from 40% to 60% or the value of IC′50 was from 50 nM to 200 nM.)
CC(C)c1ccccc1NC(=O)N[C@H]1CC[C@@H](Nc2cc(N(C)C)c3ccccc3n2)CC1 [compound 2110] | 3 (Class 3 The value of percent of control at 10^−7 M was more than 60% or the value of IC50 was more than 200 nM.)
Cc1c(NC(=O)N[C@H]2CC[C@@H](Nc3cc(N(C)C)c4ccccc4n3)CC2)cccc1[N+](=O)[O-] [compound 2111] | 3 (Class 3 The value of percent of control at 10^−7 M was more than 60% or the value of IC50 was more than 200 nM.)
CCCc1ccccc1NC(=O)N[C@H]1CC[C@@H](Nc2cc(N(C)C)c3ccccc3n2)CC1 [compound 2112] | 3 (Class 3 The value of percent of control at 10^−7 M was more than 60% or the value of IC50 was more than 200 nM.)
Cc1cccc(C(C)(C)C)c1NC(=O)N[C@H]1CC[C@@H](Nc2cc(N(C)C)c3ccccc3n2)CC1 [compound 2113, N-(2-tert-butyl-6-methylphenyl)-N′-(cis-4-{[4-(dimethylamino)quinolin-2-yl]amino}cyclohexyl)urea] | 1 (Class 1: The value of percent of control at 10^−7 M was less than 40% or the value of IC50 was less than 50 nM.)

Structure (SMILES) | class
CN(C)c1cc(N[C@H]2CC[C@@H](NC(=O)Nc3ccccc3C(C)(C)C)CC2)nc2ccccc12 [compound 2114] | 3 (Class 3 The value of percent of control at 10^−7 M was more than 60% or the value of IC50 was more than 200 nM.)
Cc1c(Cl)cccc1NC(=O)N[C@H]1CC[C@@H](Nc2cc(N(C)C)c3ccccc3n2)CC1 [compound 2115] | 3 (Class 3 The value of percent of control at 10^−7 M was more than 60% or the value of IC50 was more than 200 nM.)
CN(C)c1cc(N[C@H]2CC[C@@H](NC(=O)Nc3c(F)cc(Br)cc3F)CC2)nc2ccccc12 [compound 2116] | 3 (Class 3 The value of percent of control at 10^−7 M was more than 60% or the value of IC50 was more than 200 nM.)
CN(C)c1cc(N[C@H]2CC[C@@H](NC(=O)Nc3ccc(Cl)cc3C(F)(F)F)CC2)nc2ccccc12 [compound 2117] | 3 (Class 3 The value of percent of control at 10^−7 M was more than 60% or the value of IC50 was more than 200 nM.)
CN(C)c1cc(N[C@H]2CC[C@@H](NC(=O)Nc3ccc(C#N)cc3)CC2)nc2ccccc12 [compound 2118] | 3 (Class 3 The value of percent of control at 10^−7 M was more than 60% or the value of IC50 was more than 200 nM.)
CN(C)c1cc(N[C@H]2CC[C@@H](NC(=O)NC(c3ccccc3)c3ccccc3)CC2)nc2ccccc12 [compound 2119, N-(cis-4-{[4-(dimethylamino)quinolin-2-yl]amino}cyclohexyl)-N′-(diphenylmethyl)urea] | 2 (Class 2: The value of percent of control at 10^−7 M was from 40% to 60% or the value of IC′50 was from 50 nM to 200 nM.)
Cc1cc(Br)cc(C)c1NC(=O)N[C@H]1CC[C@@H](Nc2cc(N(C)C)c3ccccc3n2)CC1 [compound 2120] | 1 (Class 1: The value of percent of control at 10^−7 M was less than 40% or the value of IC50 was less than 50 nM.)
Cc1noc(-c2ccccc2)c1NC(=O)N[C@H]1CC[C@@H](Nc2cc(N(C)C)c3ccccc3n2)CC1 [compound 2121, N-(cis-4-{[4-(dimethylamino)quinolin-2-yl]amino}cyclohexyl)-N′-(3-methyl-5-phenylisoxazol-4-yl)urea] | 2 (Class 2: The value of percent of control at 10^−7 M was from 40% to 60% or the value of IC′50 was from 50 nM to 200 nM.)
Cc1cc(NC(=O)N[C@H]2CC[C@@H](Nc3cc(N(C)C)c4ccccc4n3)CC2)c(C(F)(F)F)o1 [compound 2122] | 3 (Class 3 The value of percent of control at 10^−7 M was more than 60% or the value of IC50 was more than 200 nM.)
CN(C)c1cc(N[C@H]2CC[C@@H](NC(=O)Nc3ccccc3Br)CC2)nc2ccccc12 [compound 2123] | 3 (Class 3 The value of percent of control at 10^−7 M was more than 60% or the value of IC50 was more than 200 nM.)
CN(C)c1cc(N[C@H]2CC[C@@H](NC(=O)Nc3ccccc3-c3ccccc3)CC2)nc2ccccc12 [compound 2124] | 3 (Class 3 The value of percent of control at 10^−7 M was more than 60% or the value of IC50 was more than 200 nM.)
CCCCNC(=O)N[C@H]1CC[C@@H](Nc2cc(N(C)C)c3ccccc3n2)CC1 [compound 2125] | 3 (Class 3 The value of percent of control at 10^−7 M was more than 60% or the value of IC50 was more than 200 nM.)
Cc1cccc(NC(=O)N[C@H]2CC[C@@H](Nc3cc(N(C)C)c4ccccc4n3)CC2)c1C [compound 2126] | 3 (Class 3 The value of percent of control at 10^−7 M was more than 60% or the value of IC50 was more than 200 nM.)
CCOC(=O)c1cccc(NC(=O)N[C@H]2CC[C@@H](Nc3cc(N(C)C)c4ccccc4n3)CC2)c1 [compound 2127] | 3 (Class 3 The value of percent of control at 10^−7 M was more than 60% or the value of IC50 was more than 200 nM.)
C=C(C)c1cccc(C(C)(C)NC(=O)N[C@H]2CC[C@@H](Nc3cc(N(C)C)c4ccccc4n3)CC2)c1 [compound 2128] | 3 (Class 3 The value of percent of control at 10^−7 M was more than 60% or the value of IC50 was more than 200 nM.)
CN(C)c1cc(N[C@H]2CC[C@@H](NC(=O)Nc3cccc4ccccc34)CC2)nc2ccccc12 [compound 2130, N-(cis-4-{[4-(dimethylamino)quinolin-2-yl]amino}cyclohexyl)-N′-1-naphthylurea] | 1 (Class 1: The value of percent of control at 10^−7 M was less than 40% or the value of IC50 was less than 50 nM.)
CN(C)c1cc(N[C@H]2CC[C@@H](NC(=O)NC3C[C@H]3c3ccccc3)CC2)nc2ccccc12 (some centres unmarked) [compound 2131] | 3 (Class 3 The value of percent of control at 10^−7 M was more than 60% or the value of IC50 was more than 200 nM.)
CN(C)c1cc(N[C@H]2CC[C@@H](NC(=O)Nc3ccc(Oc4ccccc4)cc3)CC2)nc2ccccc12 [compound 2132] | 3 (Class 3 The value of percent of control at 10^−7 M was more than 60% or the value of IC50 was more than 200 nM.)
CCCCCNC(=O)N[C@H]1CC[C@@H](Nc2cc(N(C)C)c3ccccc3n2)CC1 [compound 2133] | 3 (Class 3 The value of percent of control at 10^−7 M was more than 60% or the value of IC50 was more than 200 nM.)
